Assay results published in patent US9034825B2, “Treatment of myocardial injury with humanin analogs” (Albert Einstein College of Medicine of Yeshiva University, priority 2007, dated 2015).
Values joined by “and” are separate entries in the source; they are usually repeats but may differ in a detail not shown here. Equal entries are not always repeated.

Key:
[1] = test system: PEPCK mRNA in the liver; experiment: Hepatic PEPCK mRNA by qRT-PCR at end of clamp after ICV infusion; type: in vivo, rat; details: ICV infusion for 6 h
Protocol: (§1) Total RNA was extracted following Clontech's protocol. First-stranded cDNA was synthesized from 1 μg of total RNA using Superscript III (Gibco, Gaithersburg, Md.). Hepatic glucose-6-phosphatase (Glc-6-Pase) and phosphoenolpyruvate carboxykinase (PEPCK) mRNA abundance were assessed by qRT-PCR as described previously (Buettner et al., 2005). Quantification of these peptides and their copy number was normalized for GAPDH and 18S to correct for loading irregularities. The data presented are those normalized by GAPDH.

[2] = test system: phospho STAT-3 in hypothalamus; experiment: Western blot of hypothalamic STAT-3 phosphorylation after ICV infusion; type: in vivo, rat; details: within an hour of ICV HN infusion
Protocol: The indicated tissues were homogenized in 20 mM MOPS, 2 mM EGTA, 5 mM EDTA, 30 mM sodium fluoride, 40 mM beta-glycerophosphate, 10 mM sodium pyrophosphate, 2 mM orthovanadate, 0.5% NP-40 and complete protease inhibitor cocktail (Roche, Indianapolis, Ind., USA) and centrifuged at 12,000 g for 15 min and the supernatant was harvested while carefully avoiding the lipid layer on top. Protein concentration was measured with a BCA protein quantification kit (Pierce, Rockford, Ill., USA). Protein extracts were separated on 4-12% NuPAGE (Invitrogen, Carlsbad, Calif., USA) gels and were blotted onto Immobilon FL PVDF (Millipore, Billerica, Mass., USA). […] After three washes in TBS-T and a final wash in TBS the blots were scanned using the LI-COR Odyssey (LI-COR, Lincoln, Nebr., USA) and quantified using Odyssey 2.0 software based on direct fluorescence measurement.
For acute signaling studies, rats were injected ICV with either aCSF, 20 μg of HN or F6A (dissolved in aCSF) over 5 min, and sacrificed 30 min later. […] Samples were also obtained from these tissues at the end of the clamp and western blot analysis was performed as described previously (Muzumdar et al. 2003) The blots were scanned using the LI-COR Odyssey (LI-COR, Lincoln, Nebr., USA) and quantified using Odyssey 2.0 software based on direct fluorescence measurement. […]

[3] = test system: 3T3L1 adipocytes; experiment: Glucose transport in 3T3L1 adipocytes; type: cell-based; details: 3T3L1 cells, basal and insulin-stimulated
Description: Using the 3T3L1 adipocyte model, the effects of humanin on insulin action and glucose transport were investigated.

[4] = test system: Glc-6-Pase mRNA in the liver; experiment: Hepatic Glc-6-Pase mRNA by qRT-PCR at end of clamp after ICV infusion; type: in vivo, rat; details: ICV infusion for 6 h
Protocol: as §1

[5] = test system: Sprague-Dawley rats; experiment: ICV infusion with pancreatic insulin clamp or hyperinsulinemic clamp (Example 5); type: in vivo, rat; details: for peripheral glucose infusion rate: ICV, hyperinsulinemic clamp
Protocol: Studies were conducted with 92 three-month-old male Sprague-Dawley rats (Charles River Laboratories). Rats were housed in individual cages and subjected to a standard light-dark cycle. Rats were prepared for clamps as described in FIG. 15A. Three weeks before the in vivo studies catheters were implanted in the third cerebral ventricle (Muzumdar et al. 2003). One week before clamp experiments, catheters were placed in the right internal jugular vein and left carotid artery (Liu et al. 1998).
A primed-continuous ICV infusion of HN, F6A-HN (total dose of 20 μg), STAT-3 inhibitor (75 pmol) (Buettner et al. 2006), or aCSF was initiated at t=0 and maintained for the remainder of the experiment (FIG. 15A). Pancreatic insulin-clamp studies or euglycemic-hyperinsulinemic clamps were performed in conscious, unrestrained, catheterized mice for last 120 minutes as described previously (Bahar et al. 2006, Muzumdar et al. 2006). In the intra-venous group, HN, F6A, Colivelin, and HNGF6A were infused intravenously and hyperinsulinemic clamps were performed as described previously (Loeb et al. 2005). Estimation of glucose, glucose fluxes, insulin, FFA were done as described previously (Loeb et al. 2005). HN measurements were performed by an in-house, ELISA utilizing affinity purified humanin antibodies that recognize both human and rat humanin and has a limit of detection of 0.1 ng/ml (Hwang, and Cohen personal communication).

Molecule	PEPCK mRNA in the liver, ratio to GAPDH ([1]; end of clamp (Example 2))	increase in STAT-3 phosphorylation in hypothalamic tissues [2]	glucose transport [3]	expression of G-6Pase in the liver, ratio to GAPDH ([4]; end of clamp (Example 2), listed as HN)	hepatic glucose output ([5]; ICV HN 0.1 μg/kg/min, basal and high insulin clamp)	serum concentrations of HN during ICV infusion ([5]; ICV infusion)	peripheral glucose infusion rate [5]	PEPCK mRNA in the liver, ratio to GAPDH ([1]; end of clamp (Example 1))	expression of G-6Pase in the liver, ratio to GAPDH ([4]; end of clamp (Example 1))
CC[C@H](C)[C@H](NC(=O)[C@H](CCC(=O)O)NC(=O)[C@H](CO)NC(=O)[C@@H](NC(=O)[C@H](CC(C)C)NC(=O)[C@H](CC(C)C)NC(=O)[C@H](CC(C)C)NC(=O)[C@H](CC(C)C)NC(=O)[C@H](CS)NC(=O)[C@H](CO)NC(=O)[C@H](Cc1ccccc1)NC(=O)CNC(=O)[C@H](CCCNC(=N)N)NC(=O)[C@@H]1CCCN1C(=O)[C@H](C)NC(=O)[C@@H](N)CCSC)[C@@H](C)O)C(=O)N[C@@H](CC(=O)O)C(=O)N[C@@H](CC(C)C)C(=O)N1CCC[C@H]1C(=O)N[C@H](C(=O)N[C@@H](CCCCN)C(=O)N[C@@H](CCCNC(=N)N)C(=O)N[C@@H](CCCNC(=N)N)C(=O)N[C@@H](C)C(=O)O)C(C)C [Humanin, maprgfscll lltseidlpv krra]	12.4 ±2.7	10 fold	significantly enhanced basal as well as insulin-stimulated glucose transport	0.87 ±0.37 and 0.89 ±0.28	significant decrease in hepatic glucose output	undetectable	increased		
IGFBP-3: non glycosylated hIGFBP-3 (IGF binding protein-3), provided by Celtrix			inhibited insulin-stimulated glucose transport				decrease	3.2 ±0.3	no changes
